Patent US6814960B1, “Hydroxystilbene compounds used as microbicidal active substances” (Ciba Specialty Chemicals Corporation, priority 1998, dated 2004)

Legend:
Test in all cases: MIC value in microtitre plates (optical density)
Type in all cases: cell-based
[1] = tested on: Candida albicans ATCC 10231; details: microtitre plate, CASO bouillon, 48 hours at 37° C., optical density 620 nm, ≦20% growth; some data indicative values
Method: (§1) Determination of the Minimum Inhibiting Concentration (MIC Value) in Microtitre Plates
(§2) Casein/soybean flour peptone bouillon for the preparation of the precultures of the test bacteria and yeast.
(§3) Mycological slant agar for the preculture of moulds.
(§4) Examples of Test Organisms
(§5) The test substances are predissolved in dimethyl sulfoxide (DMSO) and tested in a serial dilution of 1:2.
(§6) Bacteria and yeast are cultured overnight in CASO bouillon, the mould on mycological slant agar and rinsed off with 10 ml of 0.85% sodium chloride solution (+0.1% TritonX-100).
(§7) All test organisms are adjusted to an organism count of 1.5×10^6 CFU/ml with 0.85% sodium chloride solution.
(§8) The test substances are prepipetted into microtitre plates in an amount of 8 μl per well.
(§9) Previously diluted organism substances are diluted 1:100 in CASO bouillon (bacteria and yeast) and Sabouraud 2% glucose bouillon (mould) and added to the test substances in an amount of 192 μl per well.
(§10) The test batches are incubated for 48 hours at 37° C. (bacteria and yeast) or for 5 days at 28° C. (mould).
(§11) After incubation, the growth is determined by reference to the turbidity of the test batches (optical density) at 620 nm in a microplate reader.
(§12) The minimum inhibiting concentration (MIC value) is the concentration of substance at which (compared with the growth control) an appreciable inhibition of the growth (≦20% growth) of the test organisms is ascertained.
(§13) One microtiter plate is used for each test organism and substance concentration. All substances tested in duplicate.

[2] = tested on: Aspergillus niger ATCC 6275; details: microtitre plate, Sabouraud 2% glucose bouillon, 5 days at 28° C., optical density 620 nm, ≦20% growth; some data indicative values
Method: as §1, §2, §3, §4, §5, §6, §7, §8, §9, §10, §11, §12, §13

[3] = tested on: Staphylococcus hominis DSM 20328; details: microtitre plate, CASO bouillon, 48 hours at 37° C., optical density 620 nm, ≦20% growth; some data indicative values
Method: as §1, §2, §3, §4, §5, §6, §7, §8, §9, §10, §11, §12, §13

[4] = tested on: Escherichia coli NCTC 8196; details: microtitre plate, CASO bouillon, 48 hours at 37° C., optical density 620 nm, ≦20% growth; some data indicative values
Method: as §1, §2, §3, §4, §5, §6, §7, §8, §9, §10, §11, §12, §13

[5] = tested on: Pseudomonas aeruginosa CIP A-22; details: microtitre plate, CASO bouillon, 48 hours at 37° C., optical density 620 nm, ≦20% growth; some data indicative values
Method: as §1, §2, §3, §4, §5, §6, §7, §8, §9, §10, §11, §12, §13

| SMILES | MIC values C. albicans [1] | MIC values A. niger [2] | MIC values S. heminis [3] | MIC values E. coli [4] | MIC values P. aeruginosa [5] |
| --- | --- | --- | --- | --- | --- |
| Oc1ccc(/C=C/c2ccccc2)cc1 [Comp. of formula 107] | >100 ppm | 100 ppm | 100 ppm | >100 ppm | >100 ppm |
| COc1ccc(/C=C/c2ccccc2)cc1O [Comp. of formula 109] | >100 ppm | 100 ppm | >100 ppm | >100 ppm | >100 ppm |
| CCOc1cc(/C=C/c2ccccc2)ccc1O [Comp. of formula 110] | >100 ppm | >100 ppm | >100 ppm | >100 ppm | >100 ppm |
| COc1cc(/C=C/c2ccccc2)ccc1O [Comp. of formula 111] | >100 ppm | 100 ppm | >100 ppm | >100 ppm | >100 ppm |
| Oc1ccccc1/C=C/c1ccccc1 [Comp. of formula 113] | 60 ppm | 60 ppm | 100 ppm | 100 ppm | >100 ppm |
| COc1cc(/C=C/c2ccccc2)cc(O)c1OC [Comp. of formula 114] | >100 ppm | 100 ppm | >100 ppm | 100 ppm | >100 ppm |
| Cc1cccc(/C=C/c2ccccc2)c1O [Comp. of formula 116] | 60 ppm | 60 ppm | 60 ppm | 60 ppm | 100 ppm |
| Oc1ccc(/C=C/c2ccc(Cl)cc2)cc1 [Comp. of formula 119] | 15 ppm | 100 ppm | 7.5 ppm | >100 ppm | >100 ppm |
| Oc1cccc(/C=C/c2ccc(Cl)cc2)c1 [Comp. of formula 120] | 7.5 ppm | 30 ppm | 7.5 ppm | 7.5 ppm | >100 ppm |
| COc1ccc(/C=C/c2ccc(Cl)cc2)cc1O [Comp. of formula 121] | >100 ppm | >100 ppm | >100 ppm | >100 ppm | >100 ppm |
| CCOc1cc(/C=C/c2ccc(Cl)cc2)ccc1O [Comp. of formula 122] | >100 ppm | >100 ppm | >100 ppm | >100 ppm | >100 ppm |
| COc1cc(/C=C/c2ccc(Cl)cc2)ccc1O [Comp. of formula 123] | >100 ppm | 100 ppm | >100 ppm | >100 ppm | >100 ppm |
| Oc1ccccc1/C=C/c1ccc(Cl)cc1 [Comp. of formula 125] | 60 ppm | 60 ppm | 60 ppm | 15 ppm | 100 ppm |
| COc1cc(/C=C/c2ccc(Cl)cc2)cc(O)c1OC [Comp. of formula 126] | 100 ppm | 100 ppm | >100 ppm | >100 ppm | >100 ppm |
| Cc1cccc(/C=C/c2ccc(Cl)cc2)c1O [Comp. of formula 128] | >100 ppm | 100 ppm | >100 ppm | >100 ppm | >100 ppm |
